{"source": "patent US11033545B2", "about": "“Negative allosteric modulators of MGLUR5 for use in the treatment of mature brain damages” (Sinntaxis AB, priority 2016, dated 2021)", "format_in_all_cases": "in vivo", "key": {"[1]": {"tested_on": "male C57/BL6 mice", "experiment": "Paw placement test after photothrombotic stroke in the mouse"}, "[2]": {"tested_on": "male C57/BL6 mice", "experiment": "Infarct size after photothrombotic stroke in the mouse", "conditions": "5 mg/kg i.p. for 5 days, FIG. 2B", "method": "Tissue collection. The animals were deeply anesthetized (isoflurane) and perfusion-fixed with 4% paraformaldehyde (PFA) solution. Brains were collected and immersed in 4% PFA solution for 4 h, then transferred into a 25% sucrose phosphate buffer solution (0.1 M NaH2PO4, 0.1 M Na2HPO4) and stored at 4° C. Brains were then cut in 30 μm slices using a microtome and one slice was kept each 1 mm for infarct size measurement. The others were kept for immunohistochemistry and immunofluorescence. All the slices were stored in anti-freeze solution (30% ethylene glycol, 30% glycerol, 0.01 M NaH2PO4, 0.03 M Na2HPO4) at −20° C.\nImmunohistochemistry. Free-floating brain slices were rinsed three times in PBS (phosphate buffer saline) and quenched in 3% H2O2 and 10% MetOH for 15 minutes. […]\nInfarct measurements. […] Twelve slices 1 mm apart, were scanned, and the non-lesioned area of the infarcted hemisphere and the non-lesioned contralateral hemisphere were outlined and measured using the ImageJ software (National Institute of Health, USA). Infarct volume (mm^3) was determined by subtracting the area of the non-lesioned ipsilateral hemisphere from that of the intact contralateral hemisphere, and calculated by volumetric integration for each animal. […]\nThe animals were perfused and immunostained as in Example 1, and the infarct size was assessed as in Example 1."}, "[3]": {"tested_on": "male Sprague Dawley rats", "experiment": "Paw placement test after photothrombotic stroke in the rat", "conditions": "rat", "method": "Animals. All experiments were carried out with the approval of the Malmö-Lund animal review board and according to the ARRIVE guidelines. Animals were housed under reverse light conditions, with the testing performed during the dark period when the rats are active. The experiments were carried out on male Sprague Dawley rats (11 weeks of age, Charles River, Scanbur A/S Karlslunde, Denmark). The studies were subjected to randomization and carried out in a blinded fashion to the investigators who performed the surgeries and behavioral assessment.\nAdministration of compound. The compound was injected as a bolus dose of 1 ml/kg into the lower quadrant of the abdomen.\n(§1) Experimental stroke. The animals were anesthetized by isoflurane (approximately 2% in 02 under spontaneous ventilation) and placed into stereotaxic frame. Temperature was monitored during surgery using a rectal temperature probe and animals were kept at 37.0-37.5±0.2° C. by means of a heating pad with feedback control. A sagittal skin incision was made and subcutaneous connective tissue was removed and the skull was dried. Thereafter, the photosensitizer dye Rose Bengal (0.5 mL at 10 mg/mL) was infused in the tail vein. Two minutes after injection, the skull was illuminated with cold light (Schott, KL 1500 LCD) on an area of 8 to 4.5 mm for 15 min (from +4 to −4 mm antero-posterior and from 0.5 to 5 mm on the left from bregma). Thereafter the tail and the scalp incisions were sutured and the rats transferred to their home cage. The functional deficit was assessed 2 h after the onset of the stroke using the limb placement test and only the animals having a score 0, for both fore- and hindlimb contralateral to the brain damaged hemisphere were used for the study.\nTest of neurological function. The paw placement test. The cortical damage inflicted by the phothrombosis, causes a deficit due to neuronal loss in the sensori-motor area and depression of functions in neuronal networks in the vicinity of the lesion. […] This test provides information on the tactile/proprioceptive response to limb stimulation. Animals were placed with all 4 paws on the table top, and the paws to be tested along the edge. The rat was moved over the edge so the paws to be tested loose contact with the table surface. The ability of the animals to place the limb back onto the table surface when the rat was moved towards the edge was evaluated. Importantly, the head was held at 45° angle, so that visual and whisker/snout stimulation was prevented. A prompt placement of the limb onto the table was scored as 1. Incomplete placing of the limb was scored as 0.5, and complete extension of the limb and paw was scored as 0. In order to obtain groups with a similar functional deficit prior to treatment of the animals with drugs or vehicle, selective sorting was performed on day 2 after experimental stroke, a time point of recovery when the infarct development had subsided.\nAdministration of the compounds. The compounds were administrated orally (p.o.) by catheters placed in the stomach. The amount of solutions were 0.2 ml/rat and 0.1 ml/mice.\nInduction of stroke was as made as in Example 1 for rats and as in Example 2 in mice. Assessment of neurological function was performed as in Example 1 for rats and as in Example 2 for mice. The animals were perfused and immunostained as in Example 1, and the infarct size was assessed as in Example 1.\nInduction of stroke, assessment of neurological function, perfusion of animals, immunostaining and assessment of infarct size were made as in Example 1."}, "[4]": {"tested_on": "male Sprague Dawley rats", "experiment": "Infarct size after photothrombotic stroke in the rat", "conditions": "5 mg/kg i.p., FIG. 1B", "method": "as §1, with “Two minutes after injection, the skull was illuminated with cold light (Schott, KL 1500 LCD) on an area of 8 to 4.5 mm for 15 min (from +4 to −4 mm antero-posterior and from 0.5 to 5 mm on the left from bregma). Thereafter the tail and the scalp incisions were sutured and the rats transferred to their home cage.” left out, “study. […]” for “study.”\nInfarct measurements. […] Twelve slices 1 mm apart, were scanned, and the non-lesioned area of the infarcted hemisphere and the non-lesioned contralateral hemisphere were outlined and measured using the ImageJ software (National Institute of Health, USA). Infarct volume (mm^3) was determined by subtracting the area of the non-lesioned ipsilateral hemisphere from that of the intact contralateral hemisphere, and calculated by volumetric integration for each animal."}, "[5]": {"conditions": "time course of recovery of function, treatment starting 2 days after stroke"}}, "data": [{"smiles": "Cc1nc(C#Cc2cccnc2)cs1", "note": "[SIN007, 3-[(2methyl-1,3-thiazol-4-yl)ethynyl]pyridine]", "values": [{"measurement": "recovery of function", "setting": "[1]; 1 mg/kg i.p. daily for 3 days, standard housing, FIG. 2F", "result": "moderately enhances recovery of function"}, {"measurement": "recovery of function, combined with enriched environment", "setting": "[1]; 1 mg/kg i.p. for 3 days plus housing in enriched environment, FIG. 2F", "result": "significantly improves recovery"}, {"measurement": "functional recovery (paw placement)", "setting": "[1]; 5 mg/kg i.p. daily for 5 days starting 2 days after stroke, vs vehicle, p<0.01, FIG. 2A", "result": "strong recovery enhancing effect"}, {"measurement": "paw placement score after 5 days of treatment", "setting": "[1]; SIN007 5 mg/kg i.p. alone, vs vehicle, FIG. 2D", "result": "recovered paw function"}, {"measurement": "infarct size", "setting": "[2]", "result": "8.9±0.9", "unit": "mm^3"}, {"measurement": "mean infarct size compared to vehicle", "setting": "[2]", "result": "the mean infarct size was the same in the two groups"}, {"measurement": "paw placement score (recovery of paw placement function)", "setting": "[3]; 5 mg/kg i.p. daily starting 2 days after stroke, assessed at 14 days after stroke, vs vehicle, p<0.001, FIG. 1A", "result": "almost complete recovery of paw placement function"}, {"measurement": "persistence of recovery of function after termination of the treatment", "setting": "[3]; after 5 days treatment, FIG. 1D", "result": "at least 7 days"}, {"measurement": "days of treatment for a maximal treatment effect", "setting": "[3]; [5]", "result": 14, "unit": "days"}, {"measurement": "days of treatment required for a treatment effect", "setting": "[3]; [5]", "result": "At least 4 days"}, {"measurement": "infarct size compared to vehicle", "setting": "[4]", "result": "no difference in infarct size"}, {"measurement": "infarct size", "setting": "[4]; animals of FIG. 1A", "result": "19.5±4.6", "unit": "mm^3"}]}]}
